Laboratory results: US6737383B1, “Herbicidal oxadiazolidines” (priority 1999, dated 2004)

How the values were obtained:
bedstraw = assay: Test B pre/postemergence bedstraw; assay type: in vivo, Galium aparine
Summary of the method: (§1)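 Test chemicals in a non-phytotoxic solvent mixture with surfactant were sprayed preemergence onto planted seeds and postemergence onto plants 2 to 18 cm tall (1- to 4-leaf stage). After twelve to sixteen days in a greenhouse, injury was visually rated against untreated controls from 0 (no effect) to 10 (complete control).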

duck salad = assay: Test B flood test duck salad; assay type: in vivo, Heteranthera limosa
Summary of the method: (§2)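 Each value is a visual injury score relative to controls, with 10 meaning complete control and 0 no effect. Evaluation took place twelve to sixteen days after the 2-leaf-stage plants were treated and kept in the greenhouse.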

wild oat = assay: Test B pre/postemergence wild oat; assay type: in vivo, Avena fatua
Summary of the method: as §1

wheat = assay: Test B pre/postemergence wheat; assay type: in vivo, Triticum aestivum
Summary of the method: as §1

bamyardgrass = assay: Test B flood test barnyardgrass; assay type: in vivo, Echinochloa crus-galli
Summary of the method: as §2

corn = assay: Test B pre/postemergence corn; assay type: in vivo, Zea mays
Summary of the method: as §1

rice = assay: Test B flood test rice; assay type: in vivo, Oryza sativa
Summary of the method: as §2

purple nutsedge = assay: Test B pre/postemergence purple nutsedge; assay type: in vivo, Cyperus rotundus
Summary of the method: as §1

crabgrass = assay: Test B pre/postemergence crabgrass; assay type: in vivo, Digitaria sanguinalis
Summary of the method: as §1

morningglory = assay: Test B pre/postemergence morningglory; assay type: in vivo, Ipomoea hederacea
Summary of the method: as §1

giant foxtail = assay: Test B pre/postemergence giant foxtail; assay type: in vivo, Setaria faberii
Summary of the method: as §1

surinam grass = assay: Test B pre/postemergence surinam grass; assay type: in vivo, Brachiaria decumbens
Summary of the method: as §1

smallflower flatsedge = assay: Test B flood test smallflower flatsedge; assay type: in vivo, Cyperus difformis
Summary of the method: as §2

velvetleaf = assay: Test B pre/postemergence velvetleaf; assay type: in vivo, Abutilon theophrasti
Summary of the method: as §1

cocklebur = assay: Test B pre/postemergence cocklebur; assay type: in vivo, Xanthium strumarium
Summary of the method: as §1

blackgrass = assay: Test B pre/postemergence blackgrass; assay type: in vivo, Alopecurus myosuroides
Summary of the method: as §1

[1] = Postemergence, Rate 125 g/ha, scale of 0 to 10 where 0 is no effect and 10 is complete control
[2] = Preemergence, Rate 62 g/ha, scale 0 to 10 (0 no effect, 10 complete control)
[3] = Preemergence, Rate 125 g/ha, scale of 0 to 10 where 0 is no effect and 10 is complete control
[4] = Preemergence, Rate 250 g/ha, scale 0 to 10 (0 no effect, 10 complete control)
[5] = Preemergence, Rate 500 g/ha, scale of 0 to 10 where 0 is no effect and 10 is complete control
[6] = Rate 62 g/ha, flood test species, Pre-emergence, visual evaluation after twelve to sixteen days
[7] = Rate 125 g/ha, under heading Pre-emergence, flood test species, visual evaluation after twelve to sixteen days
[8] = Rate 250 g/ha, Pre-emergence (flood test species), scale 0 to 10, 0 is no effect, 10 is complete control
[9] = Rate 500 g/ha, Pre-emergence section of Table B, 0 to 10 scale (0 no effect, 10 complete control)
[10] = Postemergence, Rate 62 g/ha, scale 0 to 10, 0 is no effect, 10 is complete control
[11] = Postemergence, Rate 250 g/ha, scale of 0 to 10, 0 is no effect, 10 is complete control
[12] = Postemergence, Rate 500 g/ha, scale of 0 to 10 where 0 is no effect and 10 is complete control

CC(=O)NCn1c(=O)on(C(=O)N(c2ccccc2)C(C)C)c1=O [Compound 621]
Plant response rating, Bedstraw (bedstraw; [1]): 0 | Bedstraw plant response rating (bedstraw; [2]): 0 | Bedstraw plant response rating (bedstraw; [3]): 0 | Plant response rating, Bedstraw (bedstraw; [4]): 0 | Bedstraw plant response rating (bedstraw; [5]): 0 | Plant response rating, Ducksalad (0 to 10 scale, 0 is no effect, 10 is complete control) (duck salad; [6]): 0 | Ducksalad plant response rating (0 to 10 scale, 0 is no effect, 10 is complete control) (duck salad; [7]): 0 | Ducksalad plant response rating (duck salad; [8]): 0 | Ducksalad plant response rating (duck salad; [9]): 0 | Plant response rating, Wild oats (wild oat; [10]): 0 | Plant response rating, Wild oats (wild oat; [1]): 0 | Wild oats plant response rating (wild oat; [11]): 0 | Wild oats plant response rating (wild oat; [2]): 0 | Wild oats plant response rating (wild oat; [3]): 0 | Plant response rating, Wild oats (wild oat; [4]): 0 | Plant response rating, Wild oats (wild oat; [5]): 0 | Plant response rating, Wheat (wheat; [10]): 0 | Plant response rating, Wheat (wheat; [1]): 0 | Wheat plant response rating (wheat; [11]): 0 | Wheat plant response rating (wheat; [2]): 0 | Wheat plant response rating (wheat; [3]): 0 | Plant response rating, Wheat (wheat; [4]): 0 | Plant response rating, Wheat (wheat; [5]): 0 | Plant response rating, Barnyardgrass (0 to 10 scale, 0 is no effect, 10 is complete control) (bamyardgrass; [6]): 0 | Barnyardgrass plant response rating (0 to 10 scale, 0 is no effect, 10 is complete control) (bamyardgrass; [7]): 0 | Barnyardgrass plant response rating (bamyardgrass; [8]): 0 | Barnyardgrass plant response rating (bamyardgrass; [9]): 0 | Plant response rating, Corn (corn; [10]): 0 | Plant response rating, Corn (corn; [1]): 0 | Corn plant response rating (corn; [11]): 0 | Plant response rating, Corn (corn; [12]): 0 | Corn plant response rating (corn; [2]): 0 | Corn plant response rating (corn; [3]): 0 | Plant response rating, Corn (corn; [4]): 0 | Plant response rating, Corn (corn; [5]): 0 | Plant response rating, Rice (0 to 10 scale, 0 is no effect, 10 is complete control) (rice; [6]): 0 | Rice plant response rating (0 to 10 scale, 0 is no effect, 10 is complete control) (rice; [7]): 0 | Rice plant response rating (rice; [8]): 0 | Rice plant response rating (rice; [9]): 0 | Plant response rating, Nutsedge (purple nutsedge; [10]): 0 | Plant response rating, Nutsedge (purple nutsedge; [1]): 0 | Nutsedge plant response rating (purple nutsedge; [11]): 0 | Plant response rating, Nutsedge (purple nutsedge; [12]): 0 | Nutsedge plant response rating (purple nutsedge; [2]): 0 | Nutsedge plant response rating (purple nutsedge; [3]): 0 | Plant response rating, Nutsedge (purple nutsedge; [4]): 0 | Plant response rating, Nutsedge (purple nutsedge; [5]): 0 | Plant response rating, Crabgrass (crabgrass; [10]): 0 | Plant response rating, Crabgrass (crabgrass; [1]): 3 | Crabgrass plant response rating (crabgrass; [2]): 5 | Crabgrass plant response rating (crabgrass; [3]): 6 | Plant response rating, Crabgrass (crabgrass; [4]): 7 | Plant response rating, Crabgrass (crabgrass; [5]): 8 | Plant response rating, Morningglory (morningglory; [10]): 1 | Plant response rating, Morningglory (morningglory; [1]): 2 | Morningglory plant response rating (morningglory; [11]): 2 | Plant response rating, Morningglory (morningglory; [12]): 8 | Morningglory plant response rating (morningglory; [2]): 0 | Morningglory plant response rating (morningglory; [3]): 0 | Plant response rating, Morningglory (morningglory; [4]): 0 | Plant response rating, Morningglory (morningglory; [5]): 0 | Plant response rating, Giant foxtail (giant foxtail; [10]): 0 | Plant response rating, Giant foxtail (giant foxtail; [1]): 0 | Giant foxtail plant response rating (giant foxtail; [11]): 1 | Plant response rating, Giant foxtail (giant foxtail; [12]): 7 | Giant foxtail plant response rating (giant foxtail; [2]): 0 | Giant foxtail plant response rating (giant foxtail; [3]): 7 | Plant response rating, Giant foxtail (giant foxtail; [4]): 7 | Plant response rating, Giant foxtail (giant foxtail; [5]): 10 | Plant response rating, B. signalgrass (surinam grass; [10]): 0 | Plant response rating, B. signalgrass (surinam grass; [1]): 0 | B. signalgrass plant response rating (surinam grass; [11]): 0 | Plant response rating, B. signalgrass (surinam grass; [12]): 0 | B. signalgrass plant response rating (surinam grass; [2]): 0 | B. signalgrass plant response rating (surinam grass; [3]): 0 | Plant response rating, B. signalgrass (surinam grass; [4]): 0 | B. signalgrass plant response rating (surinam grass; [5]): 0 | Plant response rating, S. Flatsedge (0 to 10 scale, 0 is no effect, 10 is complete control) (smallflower flatsedge; [6]): 0 | S. Flatsedge plant response rating (0 to 10 scale, 0 is no effect, 10 is complete control) (smallflower flatsedge; [7]): 0 | S. Flatsedge plant response rating (smallflower flatsedge; [8]): 0 | S. Flatsedge plant response rating (smallflower flatsedge; [9]): 0 | Plant response rating, Velvetleaf (velvetleaf; [10]): 0 | Plant response rating, Velvetleaf (velvetleaf; [1]): 0 | Velvetleaf plant response rating (velvetleaf; [11]): 0 | Velvetleaf plant response rating (velvetleaf; [2]): 0 | Velvetleaf plant response rating (velvetleaf; [3]): 0 | Plant response rating, Velvetleaf (velvetleaf; [4]): 0 | Plant response rating, Velvetleaf (velvetleaf; [5]): 0 | Plant response rating, Cocklebur (cocklebur; [10]): 0 | Plant response rating, Cocklebur (cocklebur; [1]): 0 | Cocklebur plant response rating (cocklebur; [11]): 0 | Plant response rating, Cocklebur (cocklebur; [12]): 0 | Cocklebur plant response rating (cocklebur; [2]): 0 | Cocklebur plant response rating (cocklebur; [3]): 0 | Plant response rating, Cocklebur (cocklebur; [4]): 0 | Plant response rating, Cocklebur (cocklebur; [5]): 0 | Plant response rating, Blackgrass (blackgrass; [10]): 0 | Plant response rating, Blackgrass (blackgrass; [1]): 0 | Blackgrass plant response rating (blackgrass; [11]): 0 | Plant response rating, Blackgrass (blackgrass; [12]): 0 | Blackgrass plant response rating (blackgrass; [2]): 0 | Blackgrass plant response rating (blackgrass; [3]): 0 | Plant response rating, Blackgrass (blackgrass; [4]): 0 | Blackgrass plant response rating (blackgrass; [5]): 0
